Data on four compounds can be found in ChEMBL document CHEMBL1151844, “Flavonoid glucosides from the hairy roots of Catharanthus roseus” (J Nat Prod, 2009).

The source made the active and inactive calls. No cut-off for these calls is given here.

Series [1] concerns THP-1. Put plainly: Antiinflammatory activity against human THP1 cells assessed as inhibition of LPS-induced MMP9 expression pretreated 2 hrs before LPS challenge measured after 24 hrs by SDS-PAGE. The class given is functional, cell-based.
Series [2] deals with THP-1. Description: Cytotoxicity against LPS-stimulated human THP1 cells assessed as cell viability at 29.4 uM pretreated 2 hrs before LPS-challenge measured after 24 hrs by MTS assay. The class given is cell-based. To be noted: thp-1, 24 h. In general terms: Tetrazolium dyes change colour on reduction, which living cells bring about.
In the next series the test system is DLD2. Put plainly: Cytotoxicity against human DLD2 cells. The class given is functional, cell-based.
Another series deals with A549. Description: Cytotoxicity against human A549 cells. It counts as functional, cell-based.
Another series concerns MCF7. Put plainly: Cytotoxicity against human MCF7 cells. It counts as functional, cell-based.
The subject of series [3] is THP-1. Put plainly: Antiinflammatory activity against human THP1 cells assessed as inhibition of LPS-induced TNFalpha release at 7.3 to 29.4 uM pretreated 2 hrs before LPS challenge measured after 24 hrs by ELISA. The class given is functional, cell-based. In general terms: An ELISA detects its analyte on a solid surface through an enzyme-linked reagent.
For a further series, the system named is Ca-Ski. Put plainly: Cytotoxicity against human CaSki cells by. It counts as functional, cell-based.
Series [4] has as its system THP-1. Put plainly: Cytotoxicity against LPS-stimulated human THP1 cells assessed as cell viability at 25.9 uM pretreated 2 hrs before LPS-challenge measured after 24 hrs by MTS assay. The class given is cell-based. To be noted: thp-1, 24 h.
The subject of series [5] is THP-1. Put plainly: Antiinflammatory activity against human THP1 cells assessed as inhibition of LPS-induced TNFalpha release at 6.5 to 25.9 uM pretreated 2 hrs before LPS challenge measured after 24 hrs by ELISA. It counts as functional, cell-based.
Series [6] relates to THP-1. Put plainly: Cytotoxicity against LPS-stimulated human THP1 cells assessed as cell viability at 29.0 uM pretreated 2 hrs before LPS-challenge measured after 24 hrs by MTS assay. The class given is cell-based. The settings on record: thp-1, 24 h.
Series [7] has as its system THP-1. Put plainly: Antiinflammatory activity against human THP1 cells assessed as inhibition of LPS-induced TNFalpha release at 7.3 to 29.0 uM pretreated 2 hrs before LPS challenge measured after 24 hrs by ELISA. It counts as functional, cell-based.
The subject of series [8] is THP-1. Description: Antiinflammatory activity against human THP1 cells assessed as inhibition of LPS-induced TNFalpha release at 6.7 to 26.9 uM pretreated 2 hrs before LPS challenge measured after 24 hrs by ELISA. It counts as functional, cell-based.
Series [9] deals with THP-1. Put plainly: Cytotoxicity against LPS-stimulated human THP1 cells assessed as cell viability at 26.9 uM pretreated 2 hrs before LPS-challenge measured after 24 hrs by MTS assay. The class given is cell-based. To be noted: thp-1, 24 h.

Take `C=C(CCC=C(C)C)CC/C=C(\C)CC(=O)OC[C@H]1O[C@@H](Oc2ccc3c(c2)O[C@@H](c2ccc(OC)c(OC)c2)CC3=O)[C@H](O)[C@@H](O)[C@@H]1O`: the Activity entry in the series on THP-1 [1] is “Dose-dependent effect”; with THP-1 [2], “Non-toxic”; in the series with DLD2 it was “Not toxic”; in the series with A549, “Not toxic”; with MCF7, “Not toxic”; in the series on Ca-Ski, “Not toxic”. In addition, the result in the series with THP-1 [3] was Active.

On to `C/C=C(\C)C(CCC(C)CCCC(C)CCCC(C)C)O[C@H]1[C@H](O)[C@@H](O)[C@H](Oc2cc(O)c3c(=O)c(O)c(-c4ccc(OC)c(OC)c4)oc3c2)O[C@@H]1CO` (stereo partly drawn), for which the Activity result in the series with THP-1 [1] is “Dose-dependent effect”; in the series with DLD2, “Not toxic”; in the series with A549, “Not toxic”; with THP-1 [4], “Non-toxic”; with MCF7 it was “Not toxic”; in the series on Ca-Ski, “Not toxic”. Besides, the outcome in the series with THP-1 [5] was Active.

`COc1ccc([C@H]2CC(=O)c3ccc(O[C@@H]4O[C@H](COC(=O)CC(C)CCCC(CO)CCCC(C)C)[C@@H](O)[C@H](O)[C@H]4O)cc3O2)cc1OC` (stereo partly drawn): the Activity result in the series with THP-1 [1] was “Dose-dependent effect”; in the series on DLD2 it was “Not toxic”; in the series on A549, “Not toxic”; with THP-1 [6] it was “Non-toxic”; in the series on MCF7 it was “Not toxic”; with Ca-Ski, “Not toxic”. The result in the series on THP-1 [7] was Active.

With `CCC(C)C(CCC(C)CCCC(C)CCCC(C)C)O[C@H]1[C@H](O)[C@@H](O)[C@H](Oc2c(-c3ccc(OC)cc3)oc3cc(O)cc(O)c3c2=O)O[C@@H]1CO` (stereo partly drawn), the Activity result is “Dose-dependent effect” in the series with THP-1 [1]; “Not toxic” in the series with DLD2; “Not toxic” in the series with A549; “Non-toxic” in the series on THP-1 [9]; “Not toxic” in the series with MCF7; “Not toxic” in the series on Ca-Ski. In addition, the result in the series on THP-1 [8] was Active.
